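48-hour exposure; five concentrations; linearly interpolated endpoints. GI50 marks 50% less growth.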 Active and inactive are the calls of the source. No stated cut-off is given here; in the data, active = GI50 up to about 1.1 µM and inactive = higher.
Key:
Assay in all cases: NCI tumour cell line growth inhibition, 48 h
HOP-62 = tested on: HOP-62
NCI-H460 = tested on: NCI-H460
OVCAR-4 = tested on: OVCAR-4
NCI-H23 = tested on: NCI-H23
HOP-92 = tested on: HOP-92
SNB-75 = tested on: SNB-75
OVCAR-5 = tested on: OVCAR-5
MOLT-4 = tested on: MOLT-4
SF-295 = tested on: SF-295
RPMI-8226 = tested on: RPMI-8226
IGROV-1 = tested on: IGROV-1
K562 = tested on: K562
Malme-3M = tested on: Malme-3M
786-0 = tested on: 786-0
ACHN = tested on: ACHN
COLO 205 = tested on: COLO 205
LOX IMVI = tested on: LOX IMVI

Measured: GI50

CC(=O)O[C@H]1CSC[C@@H](OC(C)=O)C1[N+](=O)[O-] (stereo not given in full)
inactive: HOP-62 > 100 µM | NCI-H460 > 100 µM | OVCAR-4 54.8 µM | NCI-H23 > 100 µM | HOP-92 19 µM | SNB-75 65.2 µM | OVCAR-5 > 100 µM | MOLT-4 27.8 µM | SF-295 > 100 µM | RPMI-8226 22.5 µM | IGROV-1 > 100 µM | K562 26.4 µM | Malme-3M 23 µM | 786-0 19.2 µM | ACHN 93.5 µM | COLO 205 21.4 µM

OC(c1cc2ccccc2[nH]1)C(O)(c1cc2ccccc2[nH]1)c1cc2ccccc2[nH]1 (stereo not given)
inactive: HOP-62 15.4 µM | NCI-H460 14.4 µM | NCI-H23 5.83 µM | HOP-92 14.9 µM | LOX IMVI 10.8 µM | OVCAR-5 57.8 µM | MOLT-4 8.07 µM | SF-295 7.23 µM | RPMI-8226 7.11 µM | IGROV-1 8.81 µM | K562 10.9 µM | Malme-3M 28.4 µM | 786-0 6.89 µM | ACHN 18.6 µM | COLO 205 4.44 µM

CCOC(=O)C(=O)Nc1ccc(C)c(C)c1
inactive: HOP-62 > 100 µM | NCI-H460 > 60.4 µM | OVCAR-4 > 100 µM | NCI-H23 > 100 µM | LOX IMVI > 56.1 µM | SNB-75 > 100 µM | OVCAR-5 > 100 µM | MOLT-4 > 100 µM | SF-295 > 100 µM | RPMI-8226 > 100 µM | IGROV-1 > 100 µM | K562 > 73.1 µM | Malme-3M > 100 µM | 786-0 > 100 µM | ACHN > 100 µM | COLO 205 17.1 µM

COc1c(C)c(O)c2c(=O)cc(-c3ccccc3)oc2c1C
inactive: HOP-62 > 100 µM | NCI-H460 > 100 µM | OVCAR-4 > 100 µM | NCI-H23 > 100 µM | HOP-92 > 100 µM | LOX IMVI > 100 µM | SNB-75 > 100 µM | OVCAR-5 > 100 µM | MOLT-4 > 100 µM | SF-295 > 100 µM | IGROV-1 > 100 µM | K562 > 100 µM | Malme-3M > 100 µM | 786-0 > 100 µM | ACHN > 100 µM

O=C1/C(=C/c2ccc(Br)cc2)CCC/C1=C\c1ccc(Br)cc1
inactive: HOP-62 20 µM | NCI-H460 10.5 µM | OVCAR-4 10.1 µM | NCI-H23 5.69 µM | SNB-75 20.6 µM | MOLT-4 7.11 µM | RPMI-8226 2.04 µM | IGROV-1 15.3 µM | K562 4.31 µM | Malme-3M 19.6 µM | 786-0 11.9 µM | ACHN 12.2 µM | COLO 205 12.7 µM

C=C1C(=O)O[C@@H]2[C@H]1CCC(C)=C1C=CC(=O)[C@]12C
inactive: NCI-H460 19.4 µM | NCI-H23 > 10 µM | HOP-92 6.22 µM | SNB-75 18.9 µM | OVCAR-5 17.9 µM | MOLT-4 10.9 µM | SF-295 17 µM | RPMI-8226 6.67 µM | IGROV-1 21.8 µM | K562 4.49 µM | Malme-3M > 10 µM | 786-0 > 10 µM | ACHN 16.1 µM | COLO 205 8.36 µM

CC1(C)O[C@H]2[C@H](O)C[C@](O)(CO)C[C@H]2O1
inactive: NCI-H460 > 100 µM | OVCAR-4 > 100 µM | NCI-H23 > 100 µM | HOP-92 > 100 µM | SNB-75 48.2 µM | OVCAR-5 > 100 µM | MOLT-4 > 100 µM | SF-295 > 100 µM | RPMI-8226 > 100 µM | IGROV-1 > 100 µM | K562 > 100 µM | Malme-3M > 100 µM | 786-0 > 100 µM | ACHN > 100 µM | COLO 205 > 100 µM

CCC(=O)N1C(=S)SC[C@H]1C(=O)OC
inactive: HOP-62 > 100 µM | OVCAR-4 > 100 µM | NCI-H23 > 100 µM | HOP-92 > 100 µM | LOX IMVI > 100 µM | SNB-75 > 100 µM | OVCAR-5 > 100 µM | MOLT-4 > 100 µM | SF-295 > 100 µM | IGROV-1 > 100 µM | K562 > 100 µM | Malme-3M > 100 µM | 786-0 > 100 µM | ACHN > 100 µM | COLO 205 > 100 µM

COc1ccc2cc1Oc1ccc(cc1)CC1c3cc(c(OC)cc3CCN1C)Oc1c3c(cc4c1C(C2)N(C)CC4)OCO3 (stereo not given)
inactive: HOP-62 15.5 µM | NCI-H460 14.2 µM | OVCAR-4 4.58 µM | NCI-H23 17 µM | LOX IMVI 1.85 µM | SNB-75 3.74 µM | OVCAR-5 18.2 µM | MOLT-4 5.52 µM | SF-295 10.3 µM | IGROV-1 15.1 µM | K562 1.85 µM | 786-0 11.5 µM | ACHN 4.58 µM | COLO 205 3.89 µM

COc1cc2cc(OC(C)=O)c3cc4c(cc3c2c(OC)c1OC)OCO4
inactive: HOP-62 > 100 µM | NCI-H460 > 100 µM | OVCAR-4 > 100 µM | NCI-H23 > 100 µM | LOX IMVI > 100 µM | SNB-75 > 100 µM | OVCAR-5 > 100 µM | MOLT-4 > 100 µM | SF-295 > 100 µM | IGROV-1 > 100 µM | K562 > 100 µM | Malme-3M > 100 µM | 786-0 > 100 µM | ACHN > 100 µM | COLO 205 > 100 µM

COC(=O)C1C(=O)CC2CCCCC21 (stereo not given)
inactive: HOP-62 > 100 µM | NCI-H460 > 100 µM | OVCAR-4 > 100 µM | SNB-75 > 100 µM | MOLT-4 > 100 µM | RPMI-8226 > 100 µM | IGROV-1 > 100 µM | K562 > 100 µM | Malme-3M > 100 µM | 786-0 > 100 µM | ACHN > 100 µM | COLO 205 > 100 µM

CC1C2CC=CC(=O)[C@@]2(C)CCC12OCCO2 (stereo not given in full)
inactive: HOP-62 > 100 µM | NCI-H460 > 100 µM | OVCAR-4 > 100 µM | NCI-H23 > 100 µM | HOP-92 > 100 µM | SNB-75 97.3 µM | OVCAR-5 > 100 µM | MOLT-4 > 100 µM | SF-295 > 100 µM | IGROV-1 > 100 µM | K562 > 100 µM | Malme-3M 17.5 µM | 786-0 > 100 µM | ACHN > 100 µM

O=C1C=CC(CC(=O)c2ccc3ccccc3c2)O1 (stereo not given)
inactive: HOP-62 21.5 µM | NCI-H460 24.2 µM | OVCAR-4 24.9 µM | NCI-H23 20.7 µM | HOP-92 28 µM | LOX IMVI 21 µM | SNB-75 37.8 µM | OVCAR-5 25.4 µM | MOLT-4 21.7 µM | SF-295 > 100 µM | IGROV-1 29.2 µM | K562 32.9 µM | Malme-3M 34.3 µM | 786-0 21.6 µM | ACHN 37.3 µM | COLO 205 18 µM
